Test results: PubChem BioAssay AID1963982 (Molecular Pharmacology Branch, DTP, NCI, 2024)

Test system: 313798-341-R-J2-PDC spheroids, viability
Assay: Anticancer human tumor 313798-341-R-J2-PDC patient-derived cervical squamous cell carcinoma cell line growth inhibition [PI3K]
Details: spheroids with HUVEC and MSC; for IC50: curve of first compound; for viability, T/C: stronger effect = lower value
In short: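 High-throughput combination screen: PI3K inhibitors crossed with targeted small molecules on complex spheroids of tumor cells, HUVEC and MSCs at 37 degrees C, 5% CO2. Top concentration was at or near clinical Cmax (otherwise 10 microM), with half-log decrements.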

[1] = second compound 0.00316 µM, first compound 0.0316 µM
[2] = second compound 0.00316 µM, first compound 0.1 µM
[3] = second compound 0.00316 µM, first compound 0.316 µM
[4] = second compound 0.00316 µM, first compound 1 µM
[5] = second compound 0.01 µM, first compound 0.0316 µM
[6] = second compound 0.01 µM, first compound 0.1 µM
[7] = second compound 0.01 µM, first compound 0.316 µM
[8] = second compound 0.01 µM, first compound 1 µM
[9] = second compound 0.0316 µM, first compound 0.0316 µM
[10] = second compound 0.0316 µM, first compound 0.1 µM
[11] = second compound 0.0316 µM, first compound 0.316 µM
[12] = second compound 0.0316 µM, first compound 1 µM
[13] = second compound 0.1 µM, first compound 0.0316 µM
[14] = second compound 0.1 µM, first compound 0.1 µM
[15] = second compound 0.1 µM, first compound 0.316 µM
[16] = second compound 0.1 µM, first compound 1 µM
[17] = second compound 0.316 µM, first compound 0.0316 µM
[18] = second compound 0.316 µM, first compound 0.1 µM
[19] = second compound 0.316 µM, first compound 0.316 µM
[20] = second compound 0.316 µM, first compound 1 µM
[21] = second compound 1 µM, first compound 0.0316 µM
[22] = second compound 1 µM, first compound 0.1 µM
[23] = second compound 1 µM, first compound 0.316 µM
[24] = second compound 1 µM, first compound 1 µM
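Also: spheroids exposed to compounds for seven days.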
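For viability, T/C in this document: 100% = DMSO vehicle control viability.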

CCN1CCN(Cc2ccc(Nc3ncc(F)c(-c4cc(F)c5nc(C)n(C(C)C)c5c4)n3)nc2)CC1 + CC(Nc1ccc2c(c1)OCCn1cc(N3C(=O)OCC3C(F)F)nc1-2)C(N)=O
IC50 (second compound 0.00316 µM): > 1 µM
IC50 (second compound 0.01 µM): > 1 µM
IC50 (second compound 0.0316 µM): > 1 µM
IC50 (second compound 0.1 µM): > 1 µM
IC50 (second compound 0.316 µM): > 1 µM
IC50 (second compound 1 µM): > 1 µM
viability, T/C (second compound 0.00316 µM, first compound 0.00316 µM): 102%
viability, T/C (second compound 0.00316 µM, first compound 0.01 µM): 104%
viability, T/C [1]: 99.3%
viability, T/C [2]: 105%
viability, T/C [3]: 123%
viability, T/C [4]: 131%
viability, T/C (second compound 0.01 µM, first compound 0.00316 µM): 94.9%
viability, T/C (second compound 0.01 µM, first compound 0.01 µM): 102%
viability, T/C [5]: 96.8%
viability, T/C [6]: 125%
viability, T/C [7]: 138%
viability, T/C [8]: 120%
viability, T/C (second compound 0.0316 µM, first compound 0.00316 µM): 103%
viability, T/C (second compound 0.0316 µM, first compound 0.01 µM): 104%
viability, T/C [9]: 117%
viability, T/C [10]: 115%
viability, T/C [11]: 133%
viability, T/C [12]: 110%
viability, T/C (second compound 0.1 µM, first compound 0.00316 µM): 115%
viability, T/C (second compound 0.1 µM, first compound 0.01 µM): 103%
viability, T/C [13]: 90.2%
viability, T/C [14]: 107%
viability, T/C [15]: 101%
viability, T/C [16]: 86.1%
viability, T/C (second compound 0.316 µM, first compound 0.00316 µM): 86.1%
viability, T/C (second compound 0.316 µM, first compound 0.01 µM): 76.7%
viability, T/C [17]: 71.4%
viability, T/C [18]: 75.7%
viability, T/C [19]: 77.7%
viability, T/C [20]: 61.7%
viability, T/C (second compound 1 µM, first compound 0.00316 µM): 57.3%
viability, T/C (second compound 1 µM, first compound 0.01 µM): 48.3%
viability, T/C [21]: 52.3%
viability, T/C [22]: 56.8%
viability, T/C [23]: 52.7%
viability, T/C [24]: 58%

Cn1ncc(Cl)c1-c1cc(C(=O)NC(CN)Cc2cccc(F)c2)sc1Cl (centres undefined) + CC(Nc1ccc2c(c1)OCCn1cc(N3C(=O)OCC3C(F)F)nc1-2)C(N)=O
IC50 (second compound 0.00316 µM): 0.97 µM
IC50 (second compound 0.01 µM): 1.04 µM
IC50 (second compound 0.0316 µM): 0.889 µM
IC50 (second compound 0.1 µM): 0.822 µM
IC50 (second compound 0.316 µM): 0.535 µM
IC50 (second compound 1 µM): 0.19 µM
viability, T/C [1]: 117%
viability, T/C [2]: 91.3%
viability, T/C [3]: 94.2%
viability, T/C [4]: 48.3%
viability, T/C (second compound 0.00316 µM, first compound 3.16 µM): 34.4%
viability, T/C (second compound 0.00316 µM, first compound 10 µM): 38.6%
viability, T/C [5]: 97.3%
viability, T/C [6]: 102%
viability, T/C [7]: 75.5%
viability, T/C [8]: 52.4%
viability, T/C (second compound 0.01 µM, first compound 3.16 µM): 38.1%
viability, T/C (second compound 0.01 µM, first compound 10 µM): 35.6%
viability, T/C [9]: 102%
viability, T/C [10]: 107%
viability, T/C [11]: 84.5%
viability, T/C [12]: 46.8%
viability, T/C (second compound 0.0316 µM, first compound 3.16 µM): 35.1%
viability, T/C (second compound 0.0316 µM, first compound 10 µM): 34.9%
viability, T/C [13]: 114%
viability, T/C [14]: 95.7%
viability, T/C [15]: 67.6%
viability, T/C [16]: 47.4%
viability, T/C (second compound 0.1 µM, first compound 3.16 µM): 35.2%
viability, T/C (second compound 0.1 µM, first compound 10 µM): 36.8%
viability, T/C [17]: 74.6%
viability, T/C [18]: 69.6%
viability, T/C [19]: 57.9%
viability, T/C [20]: 41.4%
viability, T/C (second compound 0.316 µM, first compound 3.16 µM): 32.8%
viability, T/C (second compound 0.316 µM, first compound 10 µM): 35.7%
viability, T/C [21]: 59.8%
viability, T/C [22]: 56.1%
viability, T/C [23]: 44.7%
viability, T/C [24]: 37.2%
viability, T/C (second compound 1 µM, first compound 3.16 µM): 28.7%
viability, T/C (second compound 1 µM, first compound 10 µM): 32.2%
